Counter-ions that a name gives are not always drawn.
Columns and labels:
human SLC6A19 and TMEM27 [1] = target: T1, human SLC6A19 and TMEM27 (Homo sapiens, UniProt Q695T7); test: 13C6,15N-isoleucine uptake in CHO cells with doxycycline-inducible expression of human SLC6A19 and TMEM27, RapidFire mass spectrometry (Example B-2); format: cell-based; settings: read-out: SLC6A19_RapidFire Uptake Assay IC50
T1 construct: expressed in transfected cells
T1 sequence (Q695T7 1-634): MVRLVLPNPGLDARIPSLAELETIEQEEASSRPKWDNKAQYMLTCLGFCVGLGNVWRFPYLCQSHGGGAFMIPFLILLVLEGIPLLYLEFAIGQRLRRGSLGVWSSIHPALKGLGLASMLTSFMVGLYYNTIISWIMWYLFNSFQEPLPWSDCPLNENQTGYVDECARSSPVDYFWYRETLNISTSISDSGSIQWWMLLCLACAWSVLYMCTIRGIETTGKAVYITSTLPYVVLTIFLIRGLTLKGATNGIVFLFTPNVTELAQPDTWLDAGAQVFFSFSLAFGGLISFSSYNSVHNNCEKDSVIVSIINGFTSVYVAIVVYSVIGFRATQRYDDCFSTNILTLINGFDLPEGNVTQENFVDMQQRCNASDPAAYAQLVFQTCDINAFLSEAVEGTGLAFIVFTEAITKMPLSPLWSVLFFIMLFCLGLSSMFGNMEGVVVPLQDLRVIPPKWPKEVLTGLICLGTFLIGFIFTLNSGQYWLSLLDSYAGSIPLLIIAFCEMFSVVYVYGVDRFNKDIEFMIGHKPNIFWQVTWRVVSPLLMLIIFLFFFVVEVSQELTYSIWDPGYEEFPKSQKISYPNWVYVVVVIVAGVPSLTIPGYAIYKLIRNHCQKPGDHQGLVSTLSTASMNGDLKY
T1 sequence (Q9HBJ8 15-222 partner): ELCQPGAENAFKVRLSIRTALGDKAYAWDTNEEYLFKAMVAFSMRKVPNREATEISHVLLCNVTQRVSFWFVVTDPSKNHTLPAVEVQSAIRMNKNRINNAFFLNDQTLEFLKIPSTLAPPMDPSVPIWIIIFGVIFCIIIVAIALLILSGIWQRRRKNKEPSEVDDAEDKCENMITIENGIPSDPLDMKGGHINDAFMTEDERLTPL
Method in brief: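 CHO cells induced overnight with doxycycline to express human SLC6A19 plus TMEM27; 20 min preincubation with compound (10-point 2-fold series, duplicate) at 37 °C in HEPES buffer pH 7.2, then 20 min with 13C6,15N-isoleucine. Intracellular label quantified by RapidFire MS against 13C-leucine standard; positive control defined 100% inhibition.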

human SLC6A19 and TMEM27 [2] = target: T1, human SLC6A19 and TMEM27; test: Radiolabelled (3H) leucine uptake in CHO cells with doxycycline-inducible expression of human SLC6A19 and TMEM27 (Example B-1); format: cell-based; settings: CHO cells with doxycycline-inducible expression of human SLC6A19 and TMEM27, read-out: SLC6A19_Radioligand Uptake Assay IC50
Method in brief: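 CHO cells were induced with doxycycline for 18 h at 37 °C, washed in HBSS, then exposed to compounds for 1 h: 8-point, 3-fold dilutions in duplicate, 0.5% DMSO final. Uptake measured by scintillation counting after 2 h shaking. Activity normalized with positive control as 0% and DMSO as 100%.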

IC50 (human SLC6A19 and TMEM27 [1])	IC50 (human SLC6A19 and TMEM27 [2])	SMILES
164 nM	295 nM	Cc1cc2cc(CNC(=O)N3CCCC3)[nH]c2cc1OCc1cscn1 [Compound 531, N-((5-methyl-6-(thiazol-4-ylmethoxy)-1H-indol-2-yl)methyl)pyrrolidine-1-carboxamide]
297 nM	318 nM	Cc1cc(COc2cc3[nH]c(CNC(=O)N4CCC4)cc3cc2F)on1 [Compound 481, N-((5-fluoro-6-((3-methylisoxazol-5-yl)methoxy)-1H-indol-2-yl)methyl)azetidine-1-carboxamide]
460 nM	207 nM	CC1(C(=O)NCc2cc3ccc(SCc4ccon4)cc3[nH]2)CC1 [Compound 196, N-((6-((isoxazol-3-ylmethyl)thio)-1H-indol-2-yl)methyl)-1-methylcyclopropanecarboxamide]
314 nM	363 nM	Cc1nc(COc2cc3[nH]c(CNC(=O)C4(C)CC4)cc3cc2F)co1 [Compound 547, N-((5-fluoro-6-((2-methyloxazol-4-yl)methoxy)-1H-indol-2-yl)methyl)-1-methylcyclopropane-1-carboxamide]
50 nM	74 nM	O=C(NCc1cc2cc(Cl)c(OCc3ccon3)cc2[nH]1)C1CC1 [Compound 131, N-((5-chloro-6-(isoxazol-3-ylmethoxy)-1H-indol-2-yl)methyl)cyclopropanecarboxamide]
173 nM	182 nM	CC1(C(=O)NCc2cc3cc(Cl)c(NCc4ccon4)cc3[nH]2)CC1 [Compound 151, N-((5-chloro-6-((isoxazol-3-ylmethyl)amino)-1H-indol-2-yl)methyl)-1-methylcyclopropane-1-carboxamide]
343 nM	244 nM	O=C(NCc1cc2cc(F)c(OCc3ccon3)cc2[nH]1)C1CCC1 [Compound 431, N-((5-fluoro-6-(isoxazol-3-ylmethoxy)-1H-indol-2-yl)methyl)cyclobutanecarboxamide]
11200 nM	3170 nM	CC(=O)NCc1cc2cc(F)c(NCc3ccon3)cc2[nH]1 [Compound 228, N-((5-fluoro-6-((isoxazol-3-ylmethyl)amino)-1H-indol-2-yl)methyl)acetamide]
89.1 nM	223 nM	CC1(C(=O)NCc2cc3cc(F)c(OCc4cccc(F)n4)cc3[nH]2)CC1 [Compound 327, N-((5-fluoro-6-((6-fluoropyridin-2-yl)methoxy)-1H-indol-2-yl)methyl)-1-methylcyclopropane-1-carboxamide]
2290 nM	1180 nM	Cn1ncc(COc2cc3[nH]c(CNC(=O)N4CCC4)cc3cc2F)n1 [Compound 409, N-((5-fluoro-6-((2-methyl-2H-1,2,3-triazol-4-yl)methoxy)-1H-indol-2-yl)methyl)azetidine-1-carboxamide]
292 nM	278 nM	Cc1cc2cc(CNC(=O)N3CCC3)[nH]c2cc1OCc1cscn1 [Compound 528, N-((5-methyl-6-(thiazol-4-ylmethoxy)-1H-indol-2-yl)methyl)azetidine-1-carboxamide]
354 nM	261 nM	CC1(C(=O)NCc2cc3cc(Cl)c(OCc4cc(C(F)F)on4)cc3[nH]2)CC1 [Compound 96, N-((5-chloro-6-((5-(difluoromethyl)isoxazol-3-yl)methoxy)-1H-indol-2-yl)methyl)-1-methylcyclopropane-1-carboxamide]
93.4 nM	384 nM	O=C(NCc1cc2cc(OC(F)(F)F)c(OCc3cscn3)cc2[nH]1)N1CCCC1 [Compound 415, N-((6-(thiazol-4-ylmethoxy)-5-(trifluoromethoxy)-1H-indol-2-yl)methyl)pyrrolidine-1-carboxamide]
502 nM	1430 nM	Cc1cncc(COc2cc3[nH]c(CNC(=O)C4(C)CC4)cc3cc2Cl)c1 [Compound 23, N-((5-chloro-6-((5-methylpyridin-3-yl)methoxy)-1H-indol-2-yl)methyl)-1-methylcyclopropane-1-carboxamide]
424 nM	430 nM	Cn1ncc(COc2cc3[nH]c(CNC(=O)C4(C)CC4)cc3cc2F)n1 [Compound 496, N-((5-fluoro-6-((2-methyl-2H-1,2,3-triazol-4-yl)methoxy)-1H-indol-2-yl)methyl)-1-methylcyclopropane-1-carboxamide]
367 nM	305 nM	Cn1ncc(COc2cc3[nH]c(CNC(=O)N4CCC4)cc3cc2Cl)n1 [Compound 405, N-((5-chloro-6-((2-methyl-2H-1,2,3-triazol-4-yl)methoxy)-1H-indol-2-yl)methyl)azetidine-1-carboxamide]
46 nM	152 nM	CC1(C(=O)NCc2cc3cc(Cl)c(OCc4cccs4)cc3[nH]2)CC1 [Compound 65, N-((5-chloro-6-(thiophen-2-ylmethoxy)-1H-indol-2-yl)methyl)-1-methylcyclopropane-1-carboxamide]
1320 nM	450 nM	CC1CCCN1C(=O)NCc1cc2ccc(OCc3ccon3)cc2[nH]1 (stereo not shown) [Compound 124, N-((6-(isoxazol-3-ylmethoxy)-1H-indol-2-yl)methyl)-2-methylpyrrolidine-1-carboxamide]
274 nM	210 nM	CC1(C(=O)NCc2cc3ccc(OCc4cccnc4F)cc3[nH]2)CC1 [Compound 98, N-((6-((2-fluoropyridin-3-yl)methoxy)-1H-indol-2-yl)methyl)-1-methylcyclopropane-1-carboxamide formate]
781 nM	1460 nM	CC1(C(=O)NCc2cc3cc(Cl)c(OCCC4CC(F)(F)C4)cc3[nH]2)CC1 [Compound 393, N-((5-chloro-6-(2-(3,3-difluorocyclobutyl)ethoxy)-1H-indol-2-yl)methyl)-1-methylcyclopropane-1-carboxamide]
240 nM	382 nM	CN(C(=O)NCc1cc2cc(Cl)c(OCc3ccon3)cc2[nH]1)C1CC1 [Compound 379, 3-((5-chloro-6-(isoxazol-3-ylmethoxy)-1H-indol-2-yl)methyl)-1-cyclopropyl-1-methylurea]
1620 nM	2830 nM	CC1(C(=O)NCc2cc3cc(Cl)c(OCc4cc5ccccn5n4)cc3[nH]2)CC1 [Compound 392, N-((5-chloro-6-(pyrazolo[1,5-a]pyridin-2-ylmethoxy)-1H-indol-2-yl)methyl)-1-methylcyclopropane-1-carboxamide]
204 nM	157 nM	CC(=O)NCc1cc2cc(Cl)c(NCc3cscn3)cc2[nH]1 [Compound 229, N-((5-chloro-6-((thiazol-4-ylmethyl)amino)-1H-indol-2-yl)methyl)acetamide]
480 nM	1080 nM	CC1(C(=O)NCc2cc3cc(Cl)c(OCc4ccc(Cl)s4)cc3[nH]2)CC1 [Compound 320, N-((5-chloro-6-((5-chlorothiophen-2-yl)methoxy)-1H-indol-2-yl)methyl)-1-methylcyclopropane-1-carboxamide]
38.1 nM	87.7 nM	CNC(=O)NCc1cc2cc(Cl)c(OCc3cc(C)no3)cc2[nH]1 [Compound 211, 1-((5-chloro-6-((3-methylisoxazol-5-yl)methoxy)-1H-indol-2-yl)methyl)-3-methylurea]
76 nM	118 nM	Cc1cc2cc(CNC(=O)C3(C)CC3)[nH]c2cc1OCc1cscn1 [Compound 11, 1-methyl-N-((5-methyl-6-(thiazol-4-ylmethoxy)-1H-indol-2-yl)methyl)cyclopropane-1-carboxamide]
578 nM	386 nM	Cn1ncc(COc2cc3[nH]c(CNC(=O)N4CCCC4)cc3cc2F)n1 [Compound 410, N-((5-fluoro-6-((2-methyl-2H-1,2,3-triazol-4-yl)methoxy)-1H-indol-2-yl)methyl)pyrrolidine-1-carboxamide]
397 nM	201 nM	CC1(C(=O)NCc2cc3cc(Cl)c(OCc4cc(C5CC5)on4)cc3[nH]2)CC1 [Compound 100, N-((5-chloro-6-((5-cyclopropylisoxazol-3-yl)methoxy)-1H-indol-2-yl)methyl)-1-methylcyclopropane-1-carboxamide]
41.2 nM	101 nM	O=C(NCc1cc2cc(Cl)c(OCc3ccon3)cc2[nH]1)C1(F)CC1 [Compound 232, N-((5-chloro-6-(isoxazol-3-ylmethoxy)-1H-indol-2-yl)methyl)-1-fluorocyclopropane-1-carboxamide]
